Measurements taken from patent publication US12427212B2, “Nectin-4 binding miniproteins, conjugates and uses thereof” (Aktis Oncology, Inc., priority 2023, dated 2025).
Bridges are numbered along the chain shown (N, C = ends). [ ]: non-standard residue; d: D form. The star is where a group is joined. DOTA = O=C(O)CN1CCN(CC(=O)O)CCN(CC(=O)*)CCN(CC(=O)O)CC1; Arg(Me2s) = CN=C(NC)NCCC[C@H](N)C(=O)O; PEG4 = NCCOCCOCCOCCOCCC(=O)O

Assays:
[1] = In vivo biodistribution of 111In-labeled miniproteins by SPECT/CT, HT-1376 xenograft; set-up: species or system mouse; conditions: female, athymic nude, mouse, in vivo
Source text: HT-1376 is a human cell line that expresses Nectin-4.
Humane endpoints: All animals were euthanized following the final imaging time point and carcasses were discarded according to IACUC protocols.
Image Processing: Images were generated as SPECT/CT pairs with the SPECT reported in units of activity.
Image generation: After the preprocessing described in A, individual maximum intensity projections (MIPs) were created with VivoQuant software for each subject at each time point and scaled in percent injected dose per gram (% ID/g). The CT for each image was windowed from −500 to 4500 Hounsfield Units (HU). The SPECT was windowed at various ranges to highlight different regions of uptake. Images were then stitched together using Image Magick based python tools to create montages of subjects over time and time points over groups.

Nectin-4 = biological target: T1, Nectin-4 (Homo sapiens, UniProt Q96NY8); test: DELFIA whole cell binding assay, equilibrium binding affinity (KD), Table 2B; conditions: Table 2B, binding to Nectin-4; read-out: Binding Affinity (KD)
T1 sequence (Q96NY8 32-510): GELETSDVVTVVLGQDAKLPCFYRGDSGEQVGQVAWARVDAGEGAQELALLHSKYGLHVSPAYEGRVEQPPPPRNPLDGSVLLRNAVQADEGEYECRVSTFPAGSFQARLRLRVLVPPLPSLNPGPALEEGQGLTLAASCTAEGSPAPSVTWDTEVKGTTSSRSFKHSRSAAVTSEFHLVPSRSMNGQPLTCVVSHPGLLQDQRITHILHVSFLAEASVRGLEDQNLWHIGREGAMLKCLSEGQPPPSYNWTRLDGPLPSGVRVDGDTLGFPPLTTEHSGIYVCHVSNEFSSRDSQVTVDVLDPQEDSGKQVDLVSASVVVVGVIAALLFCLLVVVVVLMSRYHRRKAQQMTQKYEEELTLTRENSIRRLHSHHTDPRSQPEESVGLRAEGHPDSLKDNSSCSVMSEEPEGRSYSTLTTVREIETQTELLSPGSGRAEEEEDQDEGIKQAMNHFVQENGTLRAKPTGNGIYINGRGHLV
Protocol: A whole cell binding assay was used to estimate the equilibrium binding affinity (KD) or binding inhibition constant (Ki) of miniprotein ligands to cells expressing a target of interest. Cells were dispensed into a 384-well plate and incubated at 37° C., in 5% CO2 overnight. The next day cells were gently washed once in assay buffer prior to addition of europium chelated ligand. For KD determination, a miniprotein conjugated with europium chelate (DOTA or DTPA) in the presence or absence of 100-fold excess un-conjugated ligand was incubated with cells over 12 different concentrations ranging from 100 times below and above expected KD values. For Ki determination, a single concentration (KD equivalent concentration) of europium-chelate miniprotein was added to each well followed immediately by the addition of unconjugated competing ligand over 12 different concentrations ranging from 100 times below and above expected Ki values as before. The plate was incubated for 1.5 h at room temperature to reach binding equilibrium. Cells were then washed three times at room temperature with 1×PBS followed by the addition of 2 M HCl and incubated for two h at 37° C. Following this step, 2 M NaOH and fluorescent inducer solution were added to each well and incubated for 30 minutes at room temperature according to the manufacturer's protocol (Perkin-ELMER DELFIA assay). Plates were read on an Envision plate reader and a curve-fitting model was applied to estimate KD and Ki values using GraphPad Prism software. Mean DELFIA K; values for exemplary miniproteins are recorded in TABLE 9A.

[2] = In vitro metabolic stability in serum/plasma (percent parent remaining, LC-MS); assay type: in vitro ADME; conditions: mouse
Protocol: Exemplary miniproteins were spiked into biological matrices at initial concentration between 1-2 μM. Tested matrices were varied by species (mouse, rat, human) and type (plasma, serum, and kidney brush border membrane (kBBM) preparations tested each from 0.625-100 μg/mL protein content). Tested conditions were incubated with miniproteins at 37° C. for 4 h. At collection points of 0, 15, 30, 60, 120, 240 minutes, 50 μL of each condition were quenched by organic solvent (methanol or acetonitrile) or the addition of 4% phosphoric acid solution followed by solid-phase extraction. Fractions of each quenched timepoint were subsequently assayed for parent miniproteins concentration by high resolution LC-MS. Percent-parent-remaining-time plots were constructed from the ratio of each given time collection to the time-zero parent miniprotein. Percent-parent-remaining in mouse serum and plasma for exemplary miniproteins are recorded in TABLE 11.

**Q.** Which results are given for CC[C@H](C)[C@@H]1NC(=O)CNC(=O)[C@@H]2CCCN2C(=O)[C@H](CC(C)C)NC(=O)[C@H](Cc2ccc(O)cc2)NC(=O)[C@H](CC(N)=O)NC(=O)[C@H](Cc2ccccc2)NC(=O)[C@H](C)NC(=O)[C@H](CCC(N)=O)NC(=O)[C@H](CCC(N)=O)NC(=O)[C@H]([C@@H](C)CC)NC(=O)[C@H](Cc2ccc(O)cc2)NC(=O)[C@H](Cc2ccc(O)cc2)NC(=O)[C@@H]2CSSC[C@@H](C(=O)O)NC(=O)CNC(=O)[C@H](CC(C)C)NC(=O)[C@H](CC(N)=O)NC(=O)[C@H](CC(=O)O)NC(=O)[C@H](CC(C)C)NC(=O)[C@H]([C@@H](C)CC)NC(=O)[C@H](CCC(=O)O)NC(=O)[C@H](CCC(=O)O)NC(=O)[C@H]([C@@H](C)CC)NC(=O)[C@H](CSSC[C@H](NC(C)=O)C(=O)N[C@@H](CCC(=O)O)C(=O)N[C@@H](Cc3ccc(O)cc3)C(=O)N[C@@H](CC(=O)O)C(=O)N[C@@H](CCC(=O)O)C(=O)N[C@@H](CCC(=O)O)C(=O)N[C@@H](Cc3ccccc3)C(=O)N[C@@H](Cc3ccccc3)C(=O)N[C@@H]([C@@H](C)O)C(=O)N[C@@H](C)C(=O)N[C@@H](CC(C)C)C(=O)N[C@@H](CCCCN)C(=O)N[C@@H](CCCCN)C(=O)N[C@@H](CC(C)C)C(=O)N[C@@H](CCCNC(=N)N)C(=O)NCC(=O)NCC(=O)N[C@@H](CC(=O)O)C(=O)N[C@@H]([C@@H](C)CC)C(=O)N2)NC1=O [Compound C104]?
**A.** tissue uptake at 4 h [1]: 69.6 %ID/g; tissue uptake at 24 h [1]: 40.6 %ID/g; Kd (Nectin-4): 3.7 nM

**Q.** Which tissue uptake at 4 h [1] does the source give for CC[C@H](C)[C@@H]1NC(=O)[C@H](Cc2ccc(O)cc2)NC(=O)[C@H](CC(=O)O)NC(=O)[C@@H]2CSSC[C@@H](C(=O)N[C@@H](CO)C(=O)O)NC(=O)CNC(=O)[C@H](CC(C)C)NC(=O)[C@H](CC(N)=O)NC(=O)[C@H](CC(=O)O)NC(=O)[C@H](CC(C)C)NC(=O)[C@H]([C@@H](C)CC)NC(=O)[C@H](CCC(=O)O)NC(=O)[C@H](CCC(=O)O)NC(=O)[C@H]([C@@H](C)CC)NC(=O)[C@H](CSSC[C@H](NC(=O)CCOCCOCCOCCOCCNC(=O)CN3CCN(CC(=O)O)CCN(CC(=O)O)CCN(CC(=O)O)CC3)C(=O)N[C@@H](CCC(=O)O)C(=O)N[C@@H](Cc3ccc(O)cc3)C(=O)N[C@@H](CC(=O)O)C(=O)N[C@@H](CCC(=O)O)C(=O)N[C@@H](CCC(N)=O)C(=O)N[C@@H](Cc3ccccc3)C(=O)N[C@@H](Cc3ccccc3)C(=O)N[C@@H]([C@@H](C)O)C(=O)N[C@@H](C)C(=O)N[C@@H](CC(C)C)C(=O)N[C@@H](CCCCN)C(=O)N[C@@H](CCCNC(=N)N)C(=O)N[C@@H](CC(C)C)C(=O)N[C@@H](CCCNC(=N)N)C(=O)NCC(=O)N[C@@H](CC(=O)O)C(=O)N[C@@H](CC(=O)O)C(=O)N[C@@H]([C@@H](C)CC)C(=O)N2)NC(=O)[C@H](CC(C)C)NC(=O)CNC(=O)[C@@H]2CCCN2C(=O)[C@H](CC(C)C)NC(=O)[C@H](Cc2ccc(O)cc2)NC(=O)[C@H](CCC(N)=O)NC(=O)[C@H](Cc2ccccc2)NC(=O)[C@H](CO)NC(=O)[C@H](C)NC(=O)[C@H](CCC(N)=O)NC1=O [Compound C236] here?
**A.** Its tissue uptake at 4 h is 65.1 %ID/g.

**Q.** What about the tissue uptake at 24 h [1] of the same molecule?
**A.** Its tissue uptake at 24 h is 42.1 %ID/g.

**Q.** And the half-life [2]?
**A.** Its half-life is over 720 min.

**Q.** And the half-life ([2]; plasma)?
**A.** The half-life was over 720 min.

**Q.** For CC[C@H](C)[C@@H]1NC(=O)[C@H](Cc2ccc(O)cc2)NC(=O)[C@H](CCC(=O)O)NC(=O)[C@@H]2CSSC[C@@H](C(=O)N[C@@H](CO)C(=O)O)NC(=O)CNC(=O)[C@H](CC(C)C)NC(=O)[C@H](CC(N)=O)NC(=O)[C@H](CC(=O)O)NC(=O)[C@H](CC(C)C)NC(=O)[C@H]([C@@H](C)CC)NC(=O)[C@H](CCC(=O)O)NC(=O)[C@H](CCC(=O)O)NC(=O)[C@H]([C@@H](C)CC)NC(=O)[C@H](CSSC[C@H](NC(=O)CCOCCOCCOCCOCCNC(=O)CN3CCN(CC(=O)O)CCN(CC(=O)O)CCN(CC(=O)O)CC3)C(=O)N[C@@H](CC(=O)O)C(=O)N[C@@H](Cc3ccc(O)cc3)C(=O)N[C@@H](CC(=O)O)C(=O)N[C@@H](CCC(=O)O)C(=O)N[C@@H](CCC(N)=O)C(=O)N[C@@H](Cc3ccccc3)C(=O)N[C@@H](Cc3ccccc3)C(=O)N[C@@H]([C@@H](C)O)C(=O)N[C@@H](C)C(=O)N[C@@H](CC(C)C)C(=O)N[C@@H](CCCCN)C(=O)N[C@@H](CCCNC(=N)N)C(=O)N[C@@H](CC(C)C)C(=O)N[C@@H](CCCNC(=N)N)C(=O)NCC(=O)NCC(=O)N[C@@H](CC(=O)O)C(=O)N[C@@H]([C@@H](C)CC)C(=O)N2)NC(=O)[C@H](CC(C)C)NC(=O)CNC(=O)[C@@H]2CCCN2C(=O)[C@H](CC(C)C)NC(=O)[C@H](Cc2ccc(O)cc2)NC(=O)[C@H](CCC(N)=O)NC(=O)[C@H](Cc2ccccc2)NC(=O)[C@H](CO)NC(=O)[C@H](C)NC(=O)[C@H](CCC(N)=O)NC1=O [Compound C241], which tissue uptake at 4 h [1] is on record?
**A.** The tissue uptake at 4 h was 60.1 %ID/g.

**Q.** What about the tissue uptake at 24 h [1] of the same molecule?
**A.** The tissue uptake at 24 h was 38.3 %ID/g.

**Q.** And the half-life [2]?
**A.** Its half-life is over 720 min.

**Q.** What about the half-life ([2]; plasma) of the same molecule?
**A.** Its half-life is over 720 min.

**Q.** For CC[C@H](C)[C@@H]1NC(=O)[C@H](Cc2ccc(O)cc2)NC(=O)[C@H](CCC(=O)O)NC(=O)[C@@H]2CSSC[C@@H](C(=O)N[C@@H](CO)C(=O)O)NC(=O)CNC(=O)[C@H](CC(C)C)NC(=O)[C@H](CC(N)=O)NC(=O)[C@H](CC(=O)O)NC(=O)[C@H](CC(C)C)NC(=O)[C@H]([C@@H](C)CC)NC(=O)[C@H](CCC(=O)O)NC(=O)[C@H](CCC(=O)O)NC(=O)[C@H]([C@@H](C)CC)NC(=O)[C@H](CSSC[C@H](NC(=O)CCOCCOCCOCCOCCNC(=O)CN3CCN(CC(=O)O)CCN(CC(=O)O)CCN(CC(=O)O)CC3)C(=O)N[C@@H](CC(=O)O)C(=O)N[C@@H](Cc3ccc(O)cc3)C(=O)N[C@@H](CC(=O)O)C(=O)N[C@@H](CCC(=O)O)C(=O)N[C@@H](CCC(N)=O)C(=O)N[C@@H](Cc3ccccc3)C(=O)N[C@@H](Cc3ccccc3)C(=O)N[C@@H]([C@@H](C)O)C(=O)N[C@@H](C)C(=O)N[C@@H](CC(C)C)C(=O)N[C@@H](C)C(=O)N[C@@H](CCCNC(=N)N)C(=O)N[C@@H](CC(C)C)C(=O)N[C@@H](CCCNC(=N)N)C(=O)NCC(=O)N[C@@H](C)C(=O)N[C@@H](CC(=O)O)C(=O)N[C@@H]([C@@H](C)CC)C(=O)N2)NC(=O)[C@H](CCC(=O)O)NC(=O)CNC(=O)[C@@H]2CCCN2C(=O)[C@H](CC(C)C)NC(=O)[C@H](Cc2ccc(O)cc2)NC(=O)[C@H](CCC(N)=O)NC(=O)[C@H](Cc2ccccc2)NC(=O)[C@H](CO)NC(=O)[C@H](C)NC(=O)[C@H](CCC(N)=O)NC1=O [Compound C245], which tissue uptake at 4 h [1] is on record?
**A.** Its tissue uptake at 4 h is 61 %ID/g.

**Q.** What about the tissue uptake at 24 h [1] of the same molecule?
**A.** Its tissue uptake at 24 h is 33.5 %ID/g.

**Q.** What about the half-life [2] of the same molecule?
**A.** Its half-life is over 720 min.

**Q.** And the half-life ([2]; plasma)?
**A.** The half-life was over 720 min.

**Q.** Which results are given for “{DOTA-PEG4}-CEYDEQFFTALARLRGGDICEYIQARFQYLPGLCIEEILDNLGCS-OH (disulfide 1-34, 20-44 (inferred)) [Compound C265]”?
**A.** half-life [2]: > 720 min; half-life ([2]; plasma): > 720 min

**Q.** Which results are given for “{DOTA-PEG4}-CEYDEQFFTALARLRGGDICEYIQA[Arg(Me2s)]FQYLPGLCIEEILDNLGCS-OH (disulfide 1-34, 20-44 (inferred)) [Compound C268]”?
**A.** half-life [2]: > 720 min; half-life ([2]; plasma): > 720 min
